Data taken from patent US20210261512A1, “NOVEL COMPOUNDS” (INFLAZOME LIMITED, priority 2018, published 2021).

What follows are molecules tested against NLRP3 (Homo sapiens, UniProt Q96P20) (assay: THP-1 cells pyroptosis assay). Conditions: LPS 1.0 μg/ml, nigericin 5 μM, resazurin readout, 10 μM top dose (Example 2: top dose of 30 μM).
Assay type: cell-based
Design: Seed THP-1 cells (25,000 cells/well) containing 1.0 μg/ml LPS; host or cells: THP-1
Method: THP-1 cells (ATCC #TIB-202) were grown in RPMI containing L-glutamine (Gibco #11835) supplemented with imM sodium pyruvate (Sigma #S8636) and penicillin (100 units/ml)/streptomycin (0.1 mg/ml) (Sigma #P4333) in 10% Fetal Bovine Serum (FBS) (Sigma #F0804). The cells were routinely passaged and grown to confluency (˜10^6 cells/ml). On the day of the experiment, THP-1 cells were harvested and resuspended into RPMI medium (without FBS). The cells were then counted and viability (>90%) checked by Trypan blue (Sigma #T8154). Appropriate dilutions were made to give a concentration of 625,000 cells/ml. To this diluted cell solution was added LPS (Sigma #L4524) to give a 1 μg/ml Final Assay Concentration (FAC). 40 μl of the final preparation was aliquoted into each well of a 96-well plate. The plate thus prepared was used for compound screening.
The following method step-by-step assay was followed for compound screening. • 1. Seed THP-1 cells (25,000 cells/well) containing 1.0 μg/ml LPS in 40 μl of RPMI medium (without FBS) in 96-well, black walled, clear bottom cell culture plates coated with poly-D-lysine (VWR #734-0317) • 2. Add 5 μl compound (8 points four-fold dilution or 8 points half-log dilution, with 10 μM top dose, unless stated otherwise) or vehicle (DMSO 0.1% FAC) to the appropriate wells • 3. Incubate for 3 hrs at 37° C. and 5% CO2 • 4. Add 5 μl nigericin (Sigma #N7143) (FAC 5 μM) to all wells • 5. Incubate for 1 hr at 37° C. and 5% CO2 • 6. At the end of the incubation period, spin plates at 300×g for 3 mins and remove supernatant • 7. Then add 50 μl of resazurin (Sigma #R^7017) (FAC 100 μM resazurin in RPMI medium without FBS) and incubate plates for a further 1-2 hrs at 37° C. and 5% CO2 • 8. Plates were read in an Envision reader at Ex 560 nm and Em 590 nm • 9. IC50 data is fitted to a non-linear regression equation (log inhibitor vs response-variable slope 4-parameters)

Sequence of NLRP3 (Q96P20 whole entry): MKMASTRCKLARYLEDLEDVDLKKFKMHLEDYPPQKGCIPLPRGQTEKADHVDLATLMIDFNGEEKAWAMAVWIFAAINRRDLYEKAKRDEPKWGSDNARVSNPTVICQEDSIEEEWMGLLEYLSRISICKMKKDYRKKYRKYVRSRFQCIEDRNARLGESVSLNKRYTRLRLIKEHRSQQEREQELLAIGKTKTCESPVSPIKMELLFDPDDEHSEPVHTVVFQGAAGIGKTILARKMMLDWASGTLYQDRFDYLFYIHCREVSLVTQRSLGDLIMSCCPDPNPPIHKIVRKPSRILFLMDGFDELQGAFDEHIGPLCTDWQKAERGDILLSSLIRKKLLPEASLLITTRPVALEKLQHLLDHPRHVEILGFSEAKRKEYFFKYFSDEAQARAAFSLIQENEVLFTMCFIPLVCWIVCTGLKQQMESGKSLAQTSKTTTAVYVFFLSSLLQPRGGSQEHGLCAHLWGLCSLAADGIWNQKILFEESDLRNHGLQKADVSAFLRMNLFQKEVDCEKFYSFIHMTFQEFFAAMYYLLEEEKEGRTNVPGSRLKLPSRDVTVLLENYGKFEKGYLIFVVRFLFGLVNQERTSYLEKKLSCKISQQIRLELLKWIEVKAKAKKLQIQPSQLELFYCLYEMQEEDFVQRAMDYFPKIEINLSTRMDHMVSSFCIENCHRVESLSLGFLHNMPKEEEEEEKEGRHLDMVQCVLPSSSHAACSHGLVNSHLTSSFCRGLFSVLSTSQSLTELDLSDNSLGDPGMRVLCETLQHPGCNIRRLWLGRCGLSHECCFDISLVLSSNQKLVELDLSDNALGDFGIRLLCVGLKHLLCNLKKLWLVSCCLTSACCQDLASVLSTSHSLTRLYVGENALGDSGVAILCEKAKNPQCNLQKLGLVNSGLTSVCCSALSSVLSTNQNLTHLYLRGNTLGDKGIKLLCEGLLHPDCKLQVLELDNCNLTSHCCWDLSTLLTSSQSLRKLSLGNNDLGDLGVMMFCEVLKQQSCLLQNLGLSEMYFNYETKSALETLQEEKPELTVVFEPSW

IC50 [µM]	Compound
≤ 5	COc1cc(-c2cccc(C(C)C)c2Oc2nnc(S(=O)(=O)N3CCC(N(C)C)CC3)[nH]2)ccn1 [Example 243, 1-((5-(2-isopropyl-6-(2-methoxypyridin-4-yl)phenoxy)-4H-1,2,4-triazol-3-yl)sulfonyl)-N,N-dimethylpiperidin-4-amine]
≤ 5	O=S(=O)(CCCNC1CC1)c1nnc(Nc2c3c(cc4c2CCC4)CCC3)[nH]1 [Example 56, 5-((3-(cyclopropylamino)propyl)sulfonyl)-N-(1,2,3,5,6,7-hexahydro-s-indacen-4-yl)-4H-1,2,4-triazol-3-amine]
≤ 5	O=S(=O)(c1nnc(Nc2c3c(cc4c2CCC4)CCC3)[nH]1)N1CCC2(CCN(C3CC3)C2)CC1 [Example 244, 5-((2-cyclopropyl-2,8-diazaspiro[4.5]decan-8-yl)sulfonyl)-N-(1,2,3,5,6,7-hexahydro-s-indacen-4-yl)-4H-1,2,4-triazol-3-amine]
≤ 5	Cn1ncc(S(=O)(=O)c2nnc(Nc3c4c(cc5c3CCC5)CCC4)[nH]2)c1C#N [Example 355, 4-((5-((1,2,3,5,6,7-hexahydro-s-indacen-4-yl)amino)-4H-1,2,4-triazol-3-yl)sulfonyl)-1-methyl-1H-pyrazole-5-carbonitrile]
≤ 10	CCN(CC)CCCS(=O)(=O)c1nnc(Nc2c(-c3ccccc3)cc(F)c3c2CCC3)[nH]1 [Example 78, 5-((3-(diethylamino)propyl)sulfonyl)-N-(7-fluoro-5-phenyl-2,3-dihydro-1H-inden-4-yl)-4H-1,2,4-triazol-3-amine]
≤ 5	O=S(=O)(NCc1ccccn1)c1nnc(Nc2c3c(cc4c2CCC4)CCC3)[nH]1 [Example 98, 5-((1,2,3,5,6,7-hexahydro-s-indacen-4-yl)amino)-N-(pyridin-2-ylmethyl)-4H-1,2,4-triazole-3-sulfonamide]
≤ 10	Cc1ccc(C(C)C)c(Nc2nnc(S(=O)(=O)N3CCC(N(C)C)CC3)[nH]2)c1 [Example 206, 1-((5-((2-isopropyl-5-methylphenyl)amino)-4H-1,2,4-triazol-3-yl)sulfonyl)-N,N-dimethylpiperidin-4-amine]
≤ 10	O=S(=O)(Cc1ccccn1)c1nnc(Nc2c3c(cc4c2CCC4)CCC3)[nH]1 [Example 71, N-(1,2,3,5,6,7-hexahydro-s-indacen-4-yl)-3-((pyridin-2-ylmethyl)sulfonyl)-1H-1,2,4-triazol-5-amine]
≤ 10	O=S(=O)(Nc1ccccc1)c1nnc(Nc2c3c(cc4c2CCC4)CCC3)[nH]1 [Example 85, 5-((1,2,3,5,6,7-hexahydro-s-indacen-4-yl)amino)-N-phenyl-4H-1,2,4-triazole-3-sulfonamide]
≤ 5	CN1CCC(Oc2cc(-c3ccc4c(c3Nc3nnc(S(=O)(=O)N5CCC(N(C)C)CC5)[nH]3)CCC4)ccn2)CC1 [Example 321, N,N-dimethyl-1-((5-((5-(2-((1-methylpiperidin-4-yl)oxy)pyridin-4-yl)-2,3-dihydro-1H-inden-4-yl)amino)-4H-1,2,4-triazol-3-yl)sulfonyl)piperidin-4-amine]

More lines, now with the values behind:

Compound	IC50 [µM]
CC(C)(O)c1cccc(S(=O)(=O)c2nnc(Nc3c4c(cc5c3CCC5)CCC4)[nH]2)c1 [Example 172, 2-(3-((5-((1,2,3,5,6,7-hexahydro-s-indacen-4-yl)amino)-4H-1,2,4-triazol-3-yl)sulfonyl)phenyl)propan-2-ol]	≤ 1
O=c1cccc(CNS(=O)(=O)c2nnc(Nc3c4c(cc5c3CCC5)CCC4)[nH]2)[nH]1 [Example 103, 5-((1,2,3,5,6,7-hexahydro-s-indacen-4-yl)amino)-N-((6-oxo-1,6-dihydropyridin-2-yl)methyl)-4H-1,2,4-triazole-3-sulfonamide]	≤ 5
O=S(=O)(Cc1ccncc1)c1nnc(Nc2c3c(cc4c2CCC4)CCC3)[nH]1 [Example 72, N-(1,2,3,5,6,7-hexahydro-s-indacen-4-yl)-3-((pyridin-4-ylmethyl)sulfonyl)-1H-1,2,4-triazol-5-amine]	≤ 10
O=S(=O)(c1ccncc1)c1nnc(Nc2c3c(cc4c2CCC4)CCC3)[nH]1 [Example 171, N-(1,2,3,5,6,7-hexahydro-s-indacen-4-yl)-5-(pyridin-4-ylsulfonyl)-4H-1,2,4-triazol-3-amine]	≤ 5
CN1CC2CCN(S(=O)(=O)c3nnc(Nc4c5c(cc6c4CCC6)CCC5)[nH]3)C2C1 (stereo not shown) [Example 142, N-(1,2,3,5,6,7-hexahydro-s-indacen-4-yl)-5-((5-methylhexahydropyrrolo[3,4-b]pyrrol-1 (2H)-yl)sulfonyl)-4H-1,2,4-triazol-3-amine]	≤ 5
CC(C)(O)CNS(=O)(=O)c1nnc(Nc2c3c(cc4c2CCC4)CCC3)[nH]1 [Example 272, 5-((1,2,3,5,6,7-hexahydro-s-indacen-4-yl)amino)-N-(2-hydroxy-2-methylpropyl)-4H-1,2,4-triazole-3-sulfonamide]	≤ 10
Cc1noc(CS(=O)(=O)c2nnc(Nc3c4c(cc5c3CCC5)CCC4)[nH]2)n1 [Example 70, N-(1,2,3,5,6,7-hexahydro-s-indacen-4-yl)-3-(((3-methyl-1,2,4-oxadiazol-5-yl)methyl)sulfonyl)-1H-1,2,4-triazol-5-amine]	≤ 5
C[C@@H](CN(C)C)NS(=O)(=O)c1nnc(Nc2c3c(cc4c2CCC4)CCC3)[nH]1 [Example 106, (S)—N-(1-(dimethylamino)propan-2-yl)-5-((1,2,3,5,6,7-hexahydro-s-indacen-4-yl)amino)-4H-1,2,4-triazole-3-sulfonamide]	≤ 10
CN(C)S(=O)(=O)c1nnc(Nc2c3c(cc4c2CCC4)CCC3)[nH]1 [Example 262, 5-((1,2,3,5,6,7-hexahydro-s-indacen-4-yl)amino)-N,N-dimethyl-4H-1,2,4-triazole-3-sulfonamide]	≤ 5
COc1cc(-c2ccc3c(c2Nc2nnc(S(C)(=O)=O)[nH]2)CCC3)ccn1 [Example 361, N-(5-(2-methoxypyridin-4-yl)-2,3-dihydro-1H-inden-4-yl)-5-(methylsulfonyl)-4H-1,2,4-triazol-3-amine]	≤ 10
CN(C)C(=O)Cn1cc(S(=O)(=O)c2nnc(Nc3c4c(cc5c3CCC5)CCC4)[nH]2)cn1 [Example 348, 2-(4-((5-((1,2,3,5,6,7-hexahydro-s-indacen-4-yl)amino)-4H-1,2,4-triazol-3-yl)sulfonyl)-1H-pyrazol-1-yl)-N,N-dimethylacetamide]	≤ 5
Cc1cccc(S(=O)(=O)c2nnc(Nc3c4c(cc5c3CCC5)CCC4)[nH]2)c1 [Example 174, N-(1,2,3,5,6,7-hexahydro-s-indacen-4-yl)-5-(m-tolylsulfonyl)-4H-1,2,4-triazol-3-amine]	≤ 5
CS(=O)(=O)c1nnc(Nc2c(-c3ccnc(Oc4ccccc4)c3)ccc3c2CCC3)[nH]1 [Example 340, 5-(methylsulfonyl)-N-(5-(2-phenoxypyridin-4-yl)-2,3-dihydro-1H-inden-4-yl)-4H-1,2,4-triazol-3-amine]	≤ 5
CC(C)c1cc(F)cc(-c2cccnc2)c1Nc1nnc(S(=O)(=O)c2ccn(C(C)C)n2)[nH]1 [Example 39, N-(4-fluoro-2-isopropyl-6-(pyridin-3-yl)phenyl)-5-((1-isopropyl-1H-pyrazol-3-yl)sulfonyl)-4H-1,2,4-triazol-3-amine]	≤ 10
COc1ccc(S(=O)(=O)c2nnc(Nc3c4c(cc5c3CCC5)CCC4)[nH]2)cc1 [Example 183, N-(1,2,3,5,6,7-hexahydro-s-indacen-4-yl)-5-((4-methoxyphenyl)sulfonyl)-4H-1,2,4-triazol-3-amine]	≤ 5
